Assay [1] deals with hOX1R (orexin-1 receptor) (Homo sapiens, UniProt O43613). The assay is described as follows: FLIPR Ca2+ flux assay, hOX1R. In kind it is cell-based. To be noted: CHO cells expressing the orexin-1 receptor (head: hOX1R; method: rat); agonist 70 pM Ala-6,12 orexin-A. Background: A change in cytosolic calcium serves as a functional read-out for many receptors and channels.
In another assay the target is human orexin-2 receptor (Homo sapiens (Human), UniProt O43614). The assay is described as follows: FLIPR Ca2+ flux assay, hOX2R. In kind it is cell-based. To be noted: CHO cells expressing the human orexin-2 receptor; agonist 70 pM Ala-6,12 orexin-A. The procedure:
The utility of the compounds in accordance with the present invention as orexin receptor OX1R and/or OX2R antagonists may be readily determined without undue experimentation by methodology well known in the art, including the “FLIPR Ca^2+ Flux Assay” (Okumura et al., Biochem. Biophys. Res. Comm. 280:976-981, 2001). In a typical experiment the OX1 and OX2 receptor antagonistic activity of the compounds of the present invention was determined in accordance with the following experimental method. For intracellular calcium measurements, Chinese hamster ovary (CHO) cells expressing the rat orexin-1 receptor or the human orexin-2 receptor, are grown in Iscove's modified DMEM containing 2 mM L-glutamine, […], 1% hypoxanthine-thymidine supplement, 100 U/ml penicillin, 100 μg/ml streptomycin and 10% heat-inactivated fetal calf serum (FCS). The cells are seeded at 20,000 cells/well into Becton-Dickinson black 384-well clear bottom sterile plates coated with poly-D-lysine. All reagents were from GIBCO-Invitrogen Corp. The seeded plates are incubated overnight at 37° C. and 5% CO2. Ala-6,12 human orexin-A as the agonist is prepared as a 1 mM stock solution in 1% bovine serum albumin (BSA) and diluted in assay buffer (HBSS containing 20 mM HEPES, 0.1% BSA and 2.5 mM probenecid, pH7.4) for use in the assay at a final concentration of 70pM. Test compounds are prepared as 10 mM stock solution in DMSO, then diluted in 384-well plates, first in DMSO, then assay buffer. On the day of the assay, cells are washed 3 times with 100 μl assay buffer and then incubated for 60 min (37° C., 5% CO2) in 60 μl assay buffer containing 1 μM Fluo-4AM ester, 0.02% pluronic acid, and 1% BSA. The dye loading solution is then aspirated and cells are washed 3 times with 100 μl assay buffer. 30 μl of that same buffer is left in each well. Within the Fluorescent Imaging Plate Reader (FLIPR, Molecular Devices), test compounds are added to the plate in a volume of 25 μl, incubated for 5 min and finally 25 μl of agonist is added. Fluorescence is measured for each well at 1 second intervals for 5 minutes and the height of each fluorescence peak is compared to the height of the fluorescence peak induced by 70 pM Ala-6,12 orexin-A with buffer in place of antagonist. For each antagonist, IC50 value (the concentration of compound needed to inhibit 50% of the agonist response) is determined. Alternatively, compound potency can be assessed by a radioligand binding assay (described in Bergman et. al. Bioorg. Med. Chem. Lett. 2008, 18, 1425-1430) in which the inhibition constant (Ki) is determined in membranes prepared from CHO cells expressing either the OX1 or OX2 receptor. The intrinsic orexin receptor antagonist activity of a compound which may be used in the present invention may be determined by these assays.

human orexin-2 receptor, sequence (O43614 whole entry): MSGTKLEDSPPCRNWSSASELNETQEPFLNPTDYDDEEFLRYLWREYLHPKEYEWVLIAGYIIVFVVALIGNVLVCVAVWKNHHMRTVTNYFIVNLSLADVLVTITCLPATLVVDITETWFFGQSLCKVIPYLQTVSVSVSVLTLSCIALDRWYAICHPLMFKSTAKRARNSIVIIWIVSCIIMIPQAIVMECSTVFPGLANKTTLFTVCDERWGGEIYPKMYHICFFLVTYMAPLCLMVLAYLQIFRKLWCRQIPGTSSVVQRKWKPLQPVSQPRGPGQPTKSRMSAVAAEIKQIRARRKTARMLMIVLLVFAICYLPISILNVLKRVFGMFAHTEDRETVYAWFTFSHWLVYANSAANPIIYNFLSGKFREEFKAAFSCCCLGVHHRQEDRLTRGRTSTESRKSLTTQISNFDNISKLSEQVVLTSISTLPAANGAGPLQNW

In the case of `COC(=O)c1c(OC)ccnc1N[C@@H]1C[C@@H](C)N(C(=O)c2ccccc2-n2nccn2)C1` [Example 32, Methyl 2-(((3R,5R)-1-(2-(2H-1,2,3-triazol-2-yl)benzoyl)-5-methylpyrrolidin-3-yl)amino)-4-methoxynicotinate], the figures for the IC50 (in assay [1]; on human orexin-2 receptor) were 6.75 µM and 0.0297 µM, respectively.

For the compound `CCOC(=O)c1c(OC)ccnc1N[C@@H]1C[C@@H](C)N(C(=O)c2ccccc2-n2nccn2)C1` [Example 33, Ethyl 2-(((3R,5R)-1-(2-(2H-1,2,3-triazol-2-yl)benzoyl)-5-methylpyrrolidin-3-yl)amino)-4-methoxynicotinate], the IC50 (in general, the concentration at which inhibition is half-maximal) stood at 4.07 µM in assay [1] and 0.0311 µM on human orexin-2 receptor.

As to `CCOc1ccnc(N[C@@H]2C[C@@H](C)N(C(=O)c3ccccc3-n3nccn3)C2)c1C(=O)OC` [Example 34, Methyl 2-(((3R,5R)-1-(2-(2H-1,2,3-triazol-2-yl)benzoyl)-5-methylpyrrolidin-3-yl)amino)-4-ethoxynicotinate], the IC50 is above 10 µM in assay [1] and 0.0662 µM on human orexin-2 receptor.

On to `C[C@@H]1C[C@@H](N(C)c2cc(Br)ccn2)CN1C(=O)c1ccccc1-n1nccn1` [Example 35, (2-(2H-1,2,3-Triazol-2-yl)phenyl)((2R,4R)-4-((4-bromopyridin-2-yl)(methyl)amino)-2-methylpyrrolidin-1-yl)methanone], for which the IC50 in assay [1] worked out at 2.25 µM; at human orexin-2 receptor it was 0.136 µM.

Take `Cc1c(C#N)ccnc1N[C@@H]1C[C@@H](C)N(C(=O)c2ccccc2-n2nccn2)C1` [Example 36, 2-(((3R,5R)-1-(2-(2H-1,2,3-Triazol-2-yl)benzoyl)-5-methylpyrrolidin-3-yl)amino)-3-methylisonicotinonitrile]: the IC50 worked out at 3.35 µM in assay [1] and 0.0236 µM at human orexin-2 receptor.

Consider `Cc1c(C#N)ccnc1N(C)[C@@H]1C[C@@H](C)N(C(=O)c2ccccc2-n2nccn2)C1` [Example 37, 2-(((3R,5R)-1-(2-(2H-1,2,3-Triazol-2-yl)benzoyl)-5-methylpyrrolidin-3-yl)(methyl)amino)-3-methylisonicotinonitrile], for which the half-inhibitory concentration (IC50) was above 10 µM in assay [1] and 3.21 µM on human orexin-2 receptor.

Consider `COC(=O)c1c(C#N)ccnc1N[C@@H]1C[C@@H](C)N(C(=O)c2ccccc2-n2nccn2)C1` [Example 38, Methyl 2-(((3R,5R)-1-(2-(2H-1,2,3-triazol-2-yl)benzoyl)-5-methylpyrrolidin-3-yl)amino)-4-cyanonicotinate], for which the IC50 in assay [1] is 1.55 µM; on human orexin-2 receptor it was 0.0146 µM.

As to `COc1c(C#N)ccnc1N[C@@H]1C[C@@H](C)N(C(=O)c2ccccc2-n2nccn2)C1` [Example 39, 2-(((3R,5R)-1-(2-(2H-1,2,3-Triazol-2-yl)benzoyl)-5-methylpyrrolidin-3-yl)amino)-3-methoxyisonicotinonitrile], the IC50 in assay [1] is above 10 µM; on human orexin-2 receptor it was 0.0408 µM.

For the compound `COc1cccnc1N[C@@H]1C[C@@H](C)N(C(=O)c2ccccc2-c2noc(C)n2)C1` [Example 42, ((2R,4R)-4-((3-Methoxypyridin-2-yl)amino)-2-methylpyrrolidin-1-yl)(2-(5-methyl-1,2,4-oxadiazol-3-yl)phenyl)methanone], the concentration for half-maximal inhibition (IC50) in assay [1] turned out to be 10 µM; on human orexin-2 receptor it was 0.5 µM.

Take `COc1cccnc1N[C@@H]1C[C@@H](C)N(C(=O)c2nccnc2-n2cccn2)C1` [Example 43, (3-(1H-Pyrazol-1-yl)pyrazin-2-yl)((2R,4R)-4-((3-methoxypyridin-2-yl)amino)-2-methylpyrrolidin-1-yl)methanone]: the results for the IC50 (in assay [1]; at human orexin-2 receptor) were 10 µM and 1.5 µM, respectively.

In the case of `COc1cccnc1N[C@@H]1C[C@@H](C)N(C(=O)c2nccnc2-c2ccccn2)C1` [Example 44, ((2R,4R)-4-((3-Methoxypyridin-2-yl)amino)-2-methylpyrrolidin-1-yl)(3-(pyridin-2-yl)pyrazin-2-yl)methanone], the figures for the IC50 (in assay [1]; on human orexin-2 receptor) were 10 µM and 2.37 µM, respectively.

These data come from US10150751B2 (Merck Sharp & Dohme Corp., priority 2014, dated 2018).
